By EC50 is commonly meant the concentration giving half of the maximal effect.

No end group written: not given here.

The target in this assay is T1, human TAS1R2-I595T/TAS1R3-WT (Homo sapiens, UniProt Q7RTX0+Q8TE23, I595T).
T1 construct: expressed in transfected cells; host or cells: HEK293T-Gα16gust44
T1 sequence (Q8TE23 20-839 I595T): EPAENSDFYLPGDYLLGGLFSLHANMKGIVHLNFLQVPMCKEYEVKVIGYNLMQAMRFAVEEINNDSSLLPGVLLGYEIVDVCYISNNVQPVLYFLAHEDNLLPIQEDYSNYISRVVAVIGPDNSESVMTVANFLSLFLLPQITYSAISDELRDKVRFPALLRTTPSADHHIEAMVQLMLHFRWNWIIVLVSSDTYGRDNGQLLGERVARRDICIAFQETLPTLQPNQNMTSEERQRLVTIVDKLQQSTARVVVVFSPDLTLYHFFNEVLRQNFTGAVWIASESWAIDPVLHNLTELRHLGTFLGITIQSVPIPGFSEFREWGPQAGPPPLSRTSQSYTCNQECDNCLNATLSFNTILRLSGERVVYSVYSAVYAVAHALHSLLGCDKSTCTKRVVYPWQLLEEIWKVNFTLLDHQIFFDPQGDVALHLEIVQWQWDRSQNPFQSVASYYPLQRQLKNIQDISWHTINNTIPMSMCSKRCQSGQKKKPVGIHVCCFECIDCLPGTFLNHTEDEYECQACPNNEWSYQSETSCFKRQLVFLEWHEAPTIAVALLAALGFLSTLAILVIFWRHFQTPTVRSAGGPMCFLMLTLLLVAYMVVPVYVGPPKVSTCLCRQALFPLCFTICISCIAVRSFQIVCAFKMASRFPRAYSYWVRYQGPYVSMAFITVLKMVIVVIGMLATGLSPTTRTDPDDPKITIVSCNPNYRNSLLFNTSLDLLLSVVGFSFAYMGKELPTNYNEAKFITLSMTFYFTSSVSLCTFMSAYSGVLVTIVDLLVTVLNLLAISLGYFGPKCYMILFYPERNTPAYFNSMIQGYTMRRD
T1 sequence (Q7RTX0 21-852): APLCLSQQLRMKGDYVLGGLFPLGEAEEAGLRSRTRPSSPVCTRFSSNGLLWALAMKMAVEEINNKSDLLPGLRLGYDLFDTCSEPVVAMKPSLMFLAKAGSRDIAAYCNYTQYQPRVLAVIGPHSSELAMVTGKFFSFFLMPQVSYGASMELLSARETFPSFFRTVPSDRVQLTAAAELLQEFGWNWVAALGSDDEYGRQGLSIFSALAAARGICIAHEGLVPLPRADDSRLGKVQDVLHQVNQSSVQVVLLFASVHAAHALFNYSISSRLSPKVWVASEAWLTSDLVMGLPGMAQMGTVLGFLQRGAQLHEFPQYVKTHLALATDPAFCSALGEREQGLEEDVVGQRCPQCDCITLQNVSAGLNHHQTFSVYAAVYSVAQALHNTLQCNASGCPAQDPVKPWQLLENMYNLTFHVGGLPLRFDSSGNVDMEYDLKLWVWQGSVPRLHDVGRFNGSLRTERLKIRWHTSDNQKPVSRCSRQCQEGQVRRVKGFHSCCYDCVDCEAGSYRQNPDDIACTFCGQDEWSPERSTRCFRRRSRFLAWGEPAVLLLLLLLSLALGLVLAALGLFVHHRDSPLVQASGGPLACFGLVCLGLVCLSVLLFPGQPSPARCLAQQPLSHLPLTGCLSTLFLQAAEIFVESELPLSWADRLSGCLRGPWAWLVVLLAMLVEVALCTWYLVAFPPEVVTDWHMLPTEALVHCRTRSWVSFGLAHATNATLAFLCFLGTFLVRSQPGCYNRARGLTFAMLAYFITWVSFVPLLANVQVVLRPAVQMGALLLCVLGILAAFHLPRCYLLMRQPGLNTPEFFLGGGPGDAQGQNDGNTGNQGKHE
Kind of assay: Calcium mobilisation assay, TAS1R2 variant I595T with TAS1R3-WT. Conditions: "-": no activation; for Max ΔF/F0: maximal signal amplitude. The assay is classed as cell-based. From the text: The coding sequences for TAS1R2 and TAS1R3 were commercially synthesised, and the human codon was optimised for expression in human cells. The coding sequences of human TAS1R2 and TAS1R3 were subcloned and inserted into the mammalian expression vectors pcDNA6/myc-HisA and pcDNA4/myc-HisA (Invitrogen; Thermo Fisher Scientific; Illkirch, France) between the EcoRI and NotI restriction sites, generating the plasmids pcDNA6-TAS1R2 and pcDNA4-TAS1R3, respectively. To increase protein expression in mammalian cells, an upstream start codon was used, which was a sequence called MAX, corresponding to the QBI SP163 element also described in pcDNA4-HisMax (Invitrogen; Thermo Fisher Scientific; Illkirch, France). To measure the expression level of the receptor by immunohistochemistry, we used the FLAG sequence ([…]) in the C-terminal position, which encodes the FLAG tag epitope. SNP variants of TAS1R2 and TAS1R3 were constructed based on […], respectively, using site-directed mutagenesis (Genewiz; Leipzig, Germany).
The HEK293T cells were kindly provided by Jay P. Slack (Givaudan Flavors Corporation; Cincinnati, OH, USA). HEK293T cells stably transfected with Gα16gust44 [43, 67] were seeded in poly-D-lysine-coated clear-bottom black 96-well plates (0.35 × 10^5 cells/well) in high-glucose DMEM supplemented with 2 mM GlutaMAX, 10% dialysed foetal bovine serum with penicillin/streptomycin and G418 (400 μg/mL) at 37 °C and 6.3% CO2 in a humidified atmosphere as previously reported. […] As a negative control, HEK293T cells were mock-transfected with the empty expression vector. After a further 24 h of incubation, the HEK293T cells were washed with C1 buffer (130 mM NaCl, 5 mM KCl, 10 mM HEPES pH 7.4 and 2 mM CaCl2). The 96-well plates containing the cells were then stimulated with sweet-tasting compounds. […] Different concentration ranges were tested depending on the sweet compound injected. The Ca^2+ changes were expressed as fractional changes in fluorescent light intensity: ΔF/F = (F − F0)/F0, where F was the fluorescent light intensity at each point, and F0 was the value of emitted fluorescent light prior to stimulus application. To calculate dose–response relationships, the changes in fluorescence upon stimulus application were averaged, mock-subtracted and baseline-corrected. The dose–response data obtained were adjusted using a 4-parameter logistic equation. The half-maximal effective concentrations (EC50 values) and maximal signal amplitudes were calculated using SigmaPlot software (version 15.0) (Systat Software; San Jose, CA, USA).
For in vitro calcium mobilisation assay performed on hTAS1R2-SNPs, hTAS1R3-SNPs and mTAS1R3-I60T, 6 to 7 concentrations were tested for each sweet compound, plus buffer alone. All concentration–receptor combinations were measured in duplicate, and each experiment was repeated at least 4 times (8 wells/concentration). Results were expressed for each concentration as ΔF/F mean ± SEM and represented as dose–response curves.
In general terms: A change in cytosolic calcium serves as a functional read-out for many receptors and channels.

In the case of `OC[C@H]1O[C@H](O[C@]2(CCl)O[C@H](CCl)[C@@H](O)[C@@H]2O)[C@H](O)[C@@H](O)[C@H]1Cl` [Sucralose], the half-maximal effective concentration (EC50) is 108 ± 5 µM, the “R1 = Variant EC50/WT EC50” value is recorded as 1.2 and the “Max ΔF/F0” value came to 0.08 ± 0.02.
Taken in the same sequence, the figures for `C[C@H](CC[C@@H](O[C@@H]1O[C@H](CO[C@@H]2O[C@H](CO)[C@@H](O)[C@H](O)[C@H]2O)[C@@H](O)[C@H](O)[C@H]1O[C@@H]1O[C@H](CO)[C@@H](O)[C@H](O)[C@H]1O)C(C)(C)O)[C@H]1CC[C@@]2(C)[C@@H]3CC=C4[C@@H](CC[C@H](O[C@@H]5O[C@H](CO[C@@H]6O[C@H](CO)[C@@H](O)[C@H](O)[C@H]6O)[C@@H](O)[C@H](O)[C@H]5O)C4(C)C)[C@]3(C)[C@H](O)C[C@]12C` [Mogroside V, mogroside V] were 31.4 ± 6 µM, 1.8 and 0.27 ± 0.03.
Taken in the same sequence, the figures for `COC(=O)[C@H](Cc1ccccc1)NC(=O)[C@H](CC(=O)O)NCCC(C)(C)C` [Neotame] were 1.27 ± 0.18 µM, 1.5 and 0.09 ± 0.01.
For the molecule “brazzein (QDKCKKVYENYPVSKCQLANQCNYDCKLDKHARSGECFYDEKRNLQCICDYCEY; ends and bridges not checked; cysteine pairing not given here; UniProt P56552 1-54, looked up) [sweet-tasting protein obtained by recombinant production using the yeast Pichia pastoris]”, the “R1 = Variant EC50/WT EC50” value was found to be 10.8 and the “Max ΔF/F0” value came out at 0.13 ± 0.02.
As for `C=C(C)[C@@H]1CC=C(/C=N/O)CC1` [Perillartine, perillartine], the concentration giving a half-maximal response (EC50) was 53.2 ± 1.6 µM, the “R1 = Variant EC50/WT EC50” value is given as 3.0 and the “Max ΔF/F0” value was found to be 0.51 ± 0.01.
Taken in the same sequence, the figures for `CC1=CC(=O)NS(=O)(=O)O1` [Acesulfame K, acesulfame K] were 300 ± 139 µM, 0.4 and 0.02 ± 0.01.
For the molecule `C=C1C[C@@]23CC[C@H]4[C@@](C)(CCC[C@@]4(C)C(=O)O[C@@H]4O[C@H](CO)[C@@H](O)[C@H](O[C@@H]5O[C@H](CO)[C@@H](O)[C@H](O)[C@H]5O)[C@H]4O[C@@H]4O[C@H](CO)[C@@H](O)[C@H](O)[C@H]4O)[C@@H]2CC[C@]1(O[C@@H]1O[C@H](CO)[C@@H](O)[C@H](O[C@@H]2O[C@H](CO)[C@@H](O)[C@H](O)[C@H]2O)[C@H]1O[C@@H]1O[C@H](CO)[C@@H](O)[C@H](O)[C@H]1O)C3` [Rebaudioside M, rebaudioside M], the half-maximal effective concentration (EC50) is 35.8 ± 4 µM, the “R1 = Variant EC50/WT EC50” value came to 2.1 and the “Max ΔF/F0” value came to 0.23 ± 0.01.
Turning to `O=S(=O)(O)NC1CCCCC1` [Cyclamate, cyclamate], the EC50 was 2030 ± 102 µM.
`COc1ccc(CCC(=O)c2c(O)cc(O[C@@H]3O[C@H](CO)[C@@H](O)[C@H](O)[C@H]3O[C@@H]3O[C@@H](C)[C@H](O)[C@@H](O)[C@H]3O)cc2O)cc1O` [NHDC, neohesperidin dihydrochalcone]: the 50% effective concentration (EC50) came to 70.3 ± 1.3 µM, the “R1 = Variant EC50/WT EC50” value amounted to 0.9 and the “Max ΔF/F0” value was 0.09 ± 0.01.
As for thaumatin, the “R1 = Variant EC50/WT EC50” value is reported as 3.7 and the “Max ΔF/F0” value is 0.39 ± 0.01.

B1: thaumatin (protein)
chain: ATFEIVNRCSYTVWAAASKGDAALDAGGRQLNSGESWTINVEPGTKGGKIWARTDCYFDDSGSGICKTGDCGGLLRCKRFGRPPTTLAEFSLNQYGKDYIDISNIKGFNVPMDFSPTTRGCRGVRCAADIVGQCPAKLKAPGGGCNDACTVFQTSEYCCTTGKCGPTEYSRFFKRLCPDAFSYVLDKPTTVTCPGSSNYRVTFCPTA
modifications: Eight disulfides
notes: sweet-tasting plant protein, E957
As to B1, the EC50 is 27.8 ± 1.4 µM.

The values are drawn from publication PMC11945486, “TAS1R2/TAS1R3 Single-Nucleotide Polymorphisms Affect Sweet Taste Receptor Activation by Sweeteners: The SWEET Project” (Nutrients, 2025).
